Results reported in ChEMBL document CHEMBL1165903, “Design and synthesis of 1,4-dihydropyridine derivatives as BACE-1 inhibitors” (Eur J Med Chem, 2010).

Tests used:
Beta-secretase 1 [1] = molecular target: T1, Beta-secretase 1 (Homo sapiens, UniProt P56817); test: Inhibition of BACE1 in human HEK293 cells transfected with pCDNA-neo-SEAP-APP assessed as secreted alkaline phosphatase after cleavage of beta-site of APP by fluorescence assay; type: cell-based
Beta-secretase 1 [2] = molecular target: T1, Beta-secretase 1; test: Inhibition of BACE1

T1 sequence (P56817 whole entry): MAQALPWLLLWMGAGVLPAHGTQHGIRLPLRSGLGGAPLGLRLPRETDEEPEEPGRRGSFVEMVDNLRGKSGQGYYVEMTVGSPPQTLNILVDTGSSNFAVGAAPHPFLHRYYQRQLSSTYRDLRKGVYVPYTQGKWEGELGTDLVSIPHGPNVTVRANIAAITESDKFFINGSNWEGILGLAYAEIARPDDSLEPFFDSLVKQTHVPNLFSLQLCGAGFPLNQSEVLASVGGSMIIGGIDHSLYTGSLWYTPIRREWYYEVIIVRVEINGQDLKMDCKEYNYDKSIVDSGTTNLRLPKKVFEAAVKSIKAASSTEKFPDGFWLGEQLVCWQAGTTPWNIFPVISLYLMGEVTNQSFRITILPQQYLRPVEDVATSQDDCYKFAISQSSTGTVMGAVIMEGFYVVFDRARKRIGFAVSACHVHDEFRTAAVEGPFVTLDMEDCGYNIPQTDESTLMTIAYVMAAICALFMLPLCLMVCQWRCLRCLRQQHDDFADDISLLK

Row | Structure (SMILES) | IC50 (Beta-secretase 1 [1]) [µM] | IC50 (Beta-secretase 1 [2]) [µM]
1 | CC1=C(C(=O)N[C@@H](Cc2ccccc2)[C@H](O)CNC2CC2)C(C)C(C(=O)N[C@H](C)c2ccccc2)=C(C)N1S(C)(=O)=O (stereo not given in full) | 16.1 | 
2 | CC1=C(C(=O)NOCc2ccccc2)C(C)C(C(=O)N[C@@H](Cc2ccccc2)[C@H](O)CNC2CC2)=C(C)N1S(C)(=O)=O (stereo not given in full) | 14.9 | 
3 | CCCC1C(C(=O)NOCc2ccccc2)=C(C)N(S(C)(=O)=O)C(C)=C1C(=O)N[C@@H](Cc1ccccc1)[C@H](O)CNC1CC1 (stereo not given in full) | 8.1 | 
4 | CC1=C(C(=O)NOCc2ccccc2)C(c2ccccc2)C(C(=O)N[C@@H](Cc2ccccc2)[C@H](O)CNC2CC2)=C(C)N1S(C)(=O)=O (stereo not given in full) | 21.4 | 
5 | COC(=O)CN1C(C)=C(C(=O)NOCc2ccccc2)C(C)C(C(=O)N[C@@H](Cc2ccccc2)[C@H](O)CNC2CC2)=C1C (stereo not given in full) | 15.2 | 
6 | CCCC1C(C(C)=O)=C(C)N(CC(=O)OC(C)C)C(C)=C1C(=O)N[C@@H](Cc1ccccc1)[C@H](O)CNc1cccc(F)c1 (stereo not given in full) | 27.1 | 
7 | COc1cccc(CNC[C@@H](O)[C@H](Cc2ccccc2)NC(=O)C2=CN(CC(=O)OC(C)C)C(C)=C(C(C)=O)C2C)c1 (stereo not given in full) | 26.1 | 
8 | CCCC1C(C(C)=O)=C(C)N(CC(=O)OC(C)C)C(C)=C1C(=O)N[C@@H](Cc1ccccc1)[C@H](O)CNc1cccc(OC)c1 (stereo not given in full) | 26.6 | 
9 | CCCC1C(C(=O)N[C@@H](Cc2ccccc2)[C@H](O)CNC2CC2)=CN(CC(=O)OC(C)C)C=C1C(=O)N[C@H](C)c1ccccc1 (stereo not given in full) | 29.6 | 
10 | CCCC1C(C(=O)N[C@@H](Cc2ccccc2)[C@H](O)CNc2cccc(OC)c2)=CN(CC(=O)OC(C)C)C=C1C(=O)N[C@H](C)c1ccccc1 (stereo not given in full) | 31.2 | 
11 | CC(=O)C1=C(C)N(CC(=O)OC(C)C)C(C)=C(C(=O)N[C@@H](Cc2ccccc2)[C@H](O)CNc2cccc(F)c2)C1C (stereo not given in full) | 26.4 | 
12 | CCCC1C(C(C)=O)=C(C)N(CC(=O)OC(C)C)C(C)=C1C(=O)N[C@@H](Cc1ccccc1)[C@H](O)CNC1CC1 (stereo not given in full) | 33.1 | 
13 | CC(=O)C1=C(C)N(CC(=O)OC(C)C)C(C)=C(C(=O)N[C@@H](Cc2ccccc2)[C@H](O)CNC2CC2)C1C (stereo not given in full) | 29.3 | 
14 | CC(C)OC(=O)CN1C=C(C(=O)N[C@@H](Cc2ccccc2)[C@H](O)CNC2CC2)C(C)C(C(=O)OC(C)(C)C)=C1 (stereo not given in full) | 31.9 | 
15 | CCCC1C(C(=O)N[C@@H](Cc2ccccc2)[C@H](O)CNC2CC2)=CN(CC(=O)OC(C)C)C=C1C(=O)OC(C)(C)C (stereo not given in full) | 24.6 | 
16 | CCC1C(C(=O)N[C@@H](Cc2ccccc2)[C@H](O)CNC2CC2)=C(C)N(S(C)(=O)=O)C(C)=C1C(=O)N[C@H](C)c1ccccc1 (stereo not given in full) | 16.2 | 
17 | CCC1C(C(=O)NOCc2ccccc2)=C(C)N(S(C)(=O)=O)C(C)=C1C(=O)N[C@@H](Cc1ccccc1)[C@H](O)CNC1CC1 (stereo not given in full) | 9.5 | 
18 | CC1=C(C(=O)NOCc2ccccc2)C(C(C)C)C(C(=O)N[C@@H](Cc2ccccc2)[C@H](O)CNC2CC2)=C(C)N1S(C)(=O)=O (stereo not given in full) | 11 | 
19 | CCOC(=O)CN1C(C)=C(C(=O)NOCc2ccccc2)C(C)C(C(=O)N[C@@H](Cc2ccccc2)[C@H](O)CNC2CC2)=C1C (stereo not given in full) | 15.5 | 
20 | CC1=C(C(=O)OCc2ccccc2)C(C)C(C(=O)N[C@@H](Cc2ccccc2)[C@H](O)CNC2CC2)=CN1CC(=O)OC(C)C (stereo not given in full) | 16.1 | 
21 | CCNc1cc(C(=O)N[C@@H](Cc2ccccc2)[C@H](O)CNc2cccc(C(F)(F)F)c2)cc(N2CCCCS2(=O)=O)c1 |  | 0.005

Continued by falling IC50 (Beta-secretase 1 [1]), values first:

Row | IC50 (Beta-secretase 1 [1]) [µM] | IC50 (Beta-secretase 1 [2]) [µM] | Structure (SMILES)
22 | 39.1 |  | CC1=C(C(=O)N[C@@H](Cc2ccccc2)[C@H](O)CNC2CC2)C(C)C(C(=O)OCc2ccccc2)=C(C)N1CC(=O)N(C)C (stereo not given in full)
23 | 32.8 |  | CC(C)OC(=O)CN1C=C(C(=O)N[C@@H](Cc2ccccc2)[C@H](O)CNC2CC2)C(C)C(C(=O)N[C@H](C)c2ccccc2)=C1 (stereo not given in full)
24 | 30.4 |  | CCCC1C(C(=O)N[C@@H](Cc2ccccc2)[C@H](O)CNc2cccc(OC)c2)=CN(CC(=O)OC(C)C)C=C1C(=O)OC(C)(C)C (stereo not given in full)
25 | 29.3 |  | CC(=O)C1=C(C)N(CC(=O)OC(C)C)C=C(C(=O)N[C@@H](Cc2ccccc2)[C@H](O)CNc2cccc(F)c2)C1C (stereo not given in full)
26 | 28.4 |  | CC1=C(C(=O)N[C@@H](Cc2ccccc2)[C@H](O)CNC2CC2)C(C)C(C(=O)OCc2ccccc2)=C(C)N1CC(=O)N1CCOCC1 (stereo not given in full)
27 | 28.2 |  | CC1=C(C(=O)N[C@@H](Cc2ccccc2)[C@H](O)CNC2CC2)C(C)C(C(=O)OCc2ccccc2)=C(C)N1CC(=O)N(C)C(C)C (stereo not given in full)
28 | 26.9 |  | CC(=O)OCCCN1C(C)=C(C(=O)N[C@@H](Cc2ccccc2)[C@H](O)CNC2CC2)C(C)C(C(=O)OCc2ccccc2)=C1C (stereo not given in full)
29 | 23.2 |  | CCCC1C(C(C)=O)=C(C)N(CC(=O)OC(C)C)C(C)=C1C(=O)N[C@@H](Cc1ccccc1)[C@H](O)CNCc1cccc(OC)c1 (stereo not given in full)
30 | 9 |  | CC1=C(C(=O)NOCc2ccccc2)C(C)C(C(=O)N[C@@H](Cc2ccccc2)[C@H](O)CNC2CC2)=C(C)N1CC(=O)OC(C)C (stereo not given in full)
